Results reported in patent US8092829B2, “Use of R-arylpropionic acids for treating illnesses with a rheumatic nature” (Paz Arzneimittelentwicklungsgesellschaft mbH, priority 2000, dated 2012).

Test system: AP-1
Experiment: Inhibition of AP-1 activation (AP-1 DNA binding activity by EMSA) in LPS-stimulated RAW 264-7 macrophages
Format: cell-based, murine
Settings: LPS-stimulated RAW 264-7 cells, nuclear extract; for AP-1 DNA binding at the highest concentration: 1000 μM (tested 0.1-1000 μM)
Experimental: The inhibition of the activation of AP-1 was shown with a pharmacological model. For this purpose, a cell culture of the murine macrophage cell line RAW 264-7 was taken and stimulated with 10 mg/ml LPS for 1 hour in the absence or in the presence of flurbiprofen. R-flurbiprofen (0.1, 1, 10, 100 and 1000 μM) and S-flurbiprofen (0.1, 1, 10, 100 and 1000 μM) were dissolved in phosphate buffer, added to the cell cultures 30 minutes before the LPS treatment. After conclusion of the treatment, the cells were harvested and worked up in a cytosol fraction and a cell nucleus extract. The cell nucleus extract ([…]) was incubated for 30 minutes with the AP-1-specific oligonucleotide 5′-CGCTT GATGACTCAGCCGGAA-3′ which is terminally labelled with ^32P ATP. From the incubation medium was separated the nucleus protein DNA complexes from the non-bound DNA by electro-phoresis (electrophoretic mobile shift assay EMSA). After drying of the gels, these were visualised by means of autoradiography.

Structure (SMILES)	AP-1 DNA binding at the highest concentration	inhibition of AP-1 DNA binding (10-1000 μM, added 30 minutes before LPS)
C[C@@H](C(=O)O)c1ccc(-c2ccccc2)c(F)c1 [R-flurbiprofen]	completely suppressed	inhibits the AP-1 DNA binding dosage-dependent
C[C@H](C(=O)O)c1ccc(-c2ccccc2)c(F)c1 [S-flurbiprofen, reference compound]	a reduction was found only in the case of the highest concentration	–
